Measured values reported in patent US20220332839A1, “USE OF PRG4 TO TREAT CANCER” (Lubris LLC, priority 2019, published 2022).

Assays:
Type in all cases: cell-based, human
HAS2 = HAS2 protein abundance in MDA-MB-231 cells (immunoblot); details: 100 pM TGFβ; 100 μg/mL rhPRG4 in the absence or presence of TGFβ
Experimental: Cells were washed with PBS to remove all growth media. Appropriate volume of TNTE lysis buffer (50 mM Tris, 150 mM NaCl, 1 mM EDTA, 0.5% [v/v] Triton-X-100) containing protease and phosphatase inhibitors, was added to the cell monolayer and incubated at 4° C. under vigorous shaking for 20 minutes. Lysates were then collected in microcentrifuge tubes and centrifuged at 13,000 g for 10 minutes at 4° C. 5 μL of the lysate were subjected to protein concentration determination using Bradford-based protein assays (Bio-Rad Laboratories, Canada). Lysates were boiled for 3 minutes at 95° C. in dithiothreitol (DTT)-containing Laemmli sample buffer. For immunoprecipitation analyses, lysates were incubated with appropriate antibodies at 4° C. with gentle rocking for 3 h after which immunocomplexes were incubated with Protein G-conjugated agarose beads (UBPBio, USA) at 4° C. with gentle rocking for 3 h. Finally, the beads were washed with TNTE wash buffer (0.1% [v/v] Triton-X-100) and boiled for 5 minutes at 95° C. in dithiothreitol (DTT) containing Laemmli sample buffer. Immunoprecipitates and input lysates were then resolved by sodium dodecyl sulfate-polyacrylamide electrophoresis (SDS-PAGE) and transferred onto a nitrocellulose membrane (Bio-Rad Laboratories, Canada). […] Densitometric analyses were performed using Quantity One software (Bio-Rad Laboratories, Canada).

CD44 = CD44 protein abundance in MDA-MB-231 cells (immunoblot, immunofluorescence); details: for protein abundance of CD44, immunoblotting: 100 pM TGFβ, 100 μg/mL rhPRG4 in the absence or presence of TGFβ; for CD44 immunostaining signal in organoids: 8 day-old organoids, absence or presence of TGFβ
Experimental: For immunofluorescence analysis of 3D-organoids, 600 MDA-MB-231 cells were grown within 80 μL of 50% Matrigel on top of 80 μL of 33% Matrigel coat in each well of ultra-low attachment 8-well chamber slides (Millipore-Sigma, USA). After DIC imaging on Day 8, the live multicellular structures were fixed with 4% formaldehyde, followed by permeabilization using 0.5% ice-cold Triton X-100 solution and blocking using 10% bovine serum albumin (BSA) in phosphate-buffered saline (PBS). For immunofluorescence analysis of monolayer cell culture, cells were seeded onto wells of a Falcon 8-well chamber culture slides (Corning Incorporated, USA), followed by fixing and permeabilization as described for the 3D cultures, and blocking with 5% BSA and 5% calf serum in PBS. Laminin and CD44 in cells were visualized by subjecting the three-dimensional or monolayer cultures to indirect immunofluorescence using a rat anti-laminin antibody (Abcam, Canada) and rat anti-CD44 antibody (Thermo Fisher, Canada) as the primary antibody, respectively, and Alexa 647-conjugated anti-rat IgG (ThermoFisher, Canada) as the secondary antibody. Actin in cells was visualized by incubating the fixed cultures with tetramethylrhodamine isothiocyanate (TRITC)-conjugated phalloidin (Millipore-Sigma, Canada). The DNA binding dye bisbenzimide (Hoechst 33342; Invitrogen, Canada) was used to detect nuclei. For CD44 knockdown analysis, the vector or CD44 shRNA transfected cells were identified by GFP signal. Immunofluorescence images were captured using an epifluorescence microscope with a 40× objective lens (Olympus Bx WI Confocal Microscope, Canada). Exposure times for laminin, actin, nuclei and GFP-specific signals were kept constant in each experiment. For each condition, 3 colonies/fields per experiment were captured, which were chosen as representative of the stained cells within each slide per experiments. Each experiment was repeated two independent times.
Cells were washed with PBS to remove all growth media. Appropriate volume of TNTE lysis buffer (50 mM Tris, 150 mM NaCl, 1 mM EDTA, 0.5% [v/v] Triton-X-100) containing protease and phosphatase inhibitors, was added to the cell monolayer and incubated at 4° C. under vigorous shaking for 20 minutes. Lysates were then collected in microcentrifuge tubes and centrifuged at 13,000 g for 10 minutes at 4° C. 5 μL of the lysate were subjected to protein concentration determination using Bradford-based protein assays (Bio-Rad Laboratories, Canada). Lysates were boiled for 3 minutes at 95° C. in dithiothreitol (DTT)-containing Laemmli sample buffer. […] Densitometric analyses were performed using Quantity One software (Bio-Rad Laboratories, Canada).

3TP-Lux reporter = experiment: 3TP-Lux luciferase reporter assay; details: 100 pM TGFβ
Experimental: MDA-MB-231 cells were seeded in 24-well plates at approximately 6×10^4 cells/well one day prior to transfections. Cells were co-transfected with the PAI1-promoter-driven firefly luciferase Reporter (3TP-Lux) and the CMV-Renilla luciferase control reporter constructs. 18 h post transfection, cells were serum-starved (0.2% FBS containing DMEM) for 4 h and then incubated in fresh low-serum (0.2% FBS containing DMEM) containing media in the absence or presence of 100 pM TGFβ, 100 μg/mL rhPRG4 alone or together and left overnight. Lysates were prepared and analyzed for luciferase activity using a commercially available dual luciferase assay kit (Promega, Canada). Arbitrary luciferase activity (relative light units) values were normalized to Renilla luciferase activity to account for variations in transfection efficiency. For each transfection, percent increase of PAI1 promoter driven luciferase reporter gene expression was also determined and expressed relative to luciferase activity of the respective basal condition lysates. Each experimental condition was carried out in triplicate.

MDA-MB-231 cells = experiment: In vitro trans-well invasion assay
Experimental: Overnight 0.2% FBS-containing DMEM incubated, i.e. serum-starved, MDA-MB-231 cells were used for the transwell invasion using polycarbonate filters (24-well insert, pore size 8 μm; BD Biosciences, Canada). Prior to addition of cells, each insert was placed within a well of a 24-well tissue culture plate and equilibrated with 0.5 mL serum-free DMEM, added both to the upper and lower chambers at 37° C. for 2 h. The equilibration media was then gently removed and upper chamber surface of the insert was coated with 50 μL of 3% Matrigel and allowed to solidify at 37° C. for 1 h. 1×10^5 serum-starved MDA-MB-231 cells were resuspended in 0.5 mL of serum-free DMEM and added to the upper Matrigel-coated chamber. 500 μL complete growth medium alone or containing specific reagents, as described in the respective figure descriptions, was added to the lower chambers. Cells were allowed to invade the matrix for 12 h at 37° C. after which non-adherent cells were removed by PBS washing of cell layers on the upper chamber three times. During the second wash a cotton tip applicator was used to gently scrape away the adherent cells on the upper surface of the membrane. Invading cells were fixed by immersing the transwell inserts in 100% methanol for 10 minutes at −20° C., followed by staining with 0.5% crystal violet dye (EMD Millipore, Canada) for 1 h at room temperature. Eight randomly chosen fields of each stained membrane were imaged at 10× objective of a DIC microscope (Olympus IX70) coupled to a digital camera. Cell numbers were obtained by counting the number of crystal violet stained cells in each field using a handheld counter. The average cell numbers for all images per treatment conditions were calculated and used for further statistical analysis. Each experiment was performed at least three independent times.

Substance	protein abundance of HAS2, immunoblotting (HAS2)	protein abundance of CD44, immunoblotting (CD44)	CD44 immunostaining signal in organoids (CD44)	TGFβ-induced 3TP-Lux reporter activity (3TP-Lux reporter; 100 μg/mL rhPRG4, overnight, 0.2% FBS)	invasion of cells in the absence or presence of TGFβ (MDA-MB-231 cells; 100 μg/mL rhPRG4, 100 pM TGFβ, 12 h)	cell invasion in the presence of LMWHA (MDA-MB-231 cells; 400 μg/mL LMWHA, 5 μg/mL CD44 neutralizing antibody, 100 μg/mL rhPRG4)	3TP-Lux reporter activity, TGFβ alone (3TP-Lux reporter)	invasion of cells, stimulus alone vs untreated control (MDA-MB-231 cells; 100 pM TGFβ, 400 μg/mL LMWHA)
rhPRG4: full-length recombinant human PRG4 (lubricin) glycoprotein produced by CHO-M cells; residues 25-1404 of SEQ ID NO:1	suppressed the protein abundance of HAS2	reduced the protein abundance of CD44	reduced this signal	did not alter TGFβ-induced 3TP-Lux reporter activity	blocked the ability of MDA-MB-231 cells to be invasive	able to inhibit breast cancer cell invasion		
TGFβ: recombinant human mature transforming growth factor beta (R&D systems) [reference compound]	increased the protein abundance of HAS2	promoted the protein abundance of CD44	enhanced the CD44-immnostaining signal				significant induction of 3TP-Lux reporter activity	promote the invasion of MDA-MB-231 cells
